Measured values as given in patent US5200397A, “Use of peptide analogs of thrombospondin for the inhibition of angiogenic activity” (W. R. Grace & Co.-Conn., priority 1991, dated 1993).
Residues, ends and D or L forms follow the SMILES beside them. No end group written: not given here.

Tests used:
collagenase = test: Collagenase inhibition assay (Johnson-Wint radiometric); format: biochemical; settings: 2 μg dose
Procedure: Collagenase inhibitory activity was determined as described by Johnson-Wint (Anal. Biochem. (1980) 104:175). Peptides p1 (SEQ ID No. 1) and p27 (SEQ ID NO. 19) were tested in the Johnson-Witt radiometric enzyme assay for collagenase activity at doses of 50 ng, 100 ng, 250 ng, 500 ng, 1 μg and 2μg. Peptide p27 was inhibitory (-21%) at the 2μg dose.

platelets = test: Direct platelet adhesion assay; format: cell-based; settings: for Adherence as % Control: wells treated with 50 μl of 40 μg/ml solution, platelets
Procedure: The number of adherent platelets was essentially determined as previously described (Tuszynski et al., Anal. Bio. supra). Briefly, 100 μl of 5×10^8 platelets/ml washed as previously described (Tuszynski, et al., Blood 72, 109-225, 1988) were added to microtiter plates, the wells of which were treated with 50 μl of a 40 μg/m] peptide or protein solution (Hepes buffered saline, pH 7.4). Solutions were dried at room temperature after incubation in a fume hood for two hours. Wells were blocked for one hour with 1% BSA. Platelets (100 μl) were incubated in the wells for 30 minutes and non-adherent platelets were removed by aspiration. Wells were washed 3X with 200 μl of Hepes buffered saline, pH 7.4. The number of adherent platelets was determined by measuring the platelet-derived protein using the BCA protein assay.

[1] = tested on: chicken chorioallantoic membrane (CAM); test: CAM assay (antiangiogenesis, Avascular Index); format: in vivo; settings: any dosage
Procedure: Assays for antiangiogenic properties on the chicken chorioallantoic membrane (CAM) were performed using the "egg culture" technique (Auerbach, Dev. Biol. (1974) 41:391 and Crum, Science (1985) 230:1375). The fertilized White Leghorn egg (Truslow Farms, Chestertown, Md.) used in this method was removed from the shell on day 3 (after fertilization) and placed in a culture dish. The "cultured egg" was maintained through day 6 at 37° C. in an atmosphere of 2% CO2 and a relative humidity of 70%. After day 6 incubation was carried out without supplemental CO2.
Test materials were implanted on the CAM using low gelling temperature agarose pellets (Castellot, J. Cell Physiol. (1986) 127:323). This assay was performed twice. In the first assay, the test materials included pellets containing 90, 9, and 0.9 μg of peptide p1 (SEQ ID No. 1) diluted in water. […]
Antiangiogenesis was examined in an assay for inhibition of embryonic angiogenesis as described by Fenselau in "Growth and Maturation Factors" (1984) 2:175. After 1 or 2 days the samples were evaluated for their antiangiogenic effects on the CAM. […]
Inhibition of embryonic angiogenesis was also quantitated by measuring the size of the affected zone surrounding the pellet as well as the portion of the pellet that borders the affected region. […]

[2] = tested on: Mouse B16 F10 melanoma cells; test: Direct adhesion assay (melanoma cells to adsorbed ligand); format: cell-based; settings: for Adhesion as % Thrombospondin: absorbed compound 2 μg, B16 F10 melanoma cells
Procedure: It is believed that thrombospondin acts in metastasis through its adhesive properties. […] In this assay, wells of a 96-well microtiter dish (Costar, 10 Cambridge, Massachusetts) were incubated for two to three hours with 50 μl of a 40 μg/ml solution of various ligands in 20 mM NaCl, pH 7.3. Thrombospondin (purified by the method of Tuszynski et al., J. Biol. Chem. (1985) 260:12240-5), fibronectin (Sigma Chemical Co., Missouri) served as the positive control. Bovine serum albumin (BSA) (Sigma Chemical Co.) served as the negative control. […] Following peptide adhesion to the microtiter dish, the wells were aspirated, treated with 200 μl phosphate buffered saline (PBS) containing 1% BSA for 1 hour and then washed three more times with 200 μl PBS.
Mouse B16 F10 melanoma cells were grown and harvested during log phase of growth using standard procedures. The harvested cells were washed two times in serum-free Dulbecco's minimum essential medium (DMEM) (Flow Laboratories) and suspended in DMEM at a final concentration of 4×10^5 cells/ml. Of the cell suspension 100 μl was added to each well of the microtiter dish containing the various ligands and the dish incubated at 37° C. in a CO2 incubator for 1 hour. Nonadherent cells were removed by aspiration and the wells washed three times with 200 μl of PBS. The total cell-associated protein was determined by dissolving the attached cells directly in the microtiter wells with 200 μl of the Pierce BCA working solution (Pierce Chem. Co. Booklet No. 23225 (1987)). The plate was covered with an adhesive mylar sheet (Flow Labs) and incubated at 60° C. for 30 minutes. Plates were allowed to cool to room temperature, cover sheets were removed, and the absorbance of each well was determined at 562 nm with a microtiter plate reader (Biotek, Burlington, Vt.)

intact thrombospondin = test: Competitive assay, thrombospondin specific adhesion to melanoma cells; format: cell-based; settings: for % of buffer control: melanoma cell adhesion to absorbed thrombospondin
Procedure: The direct adhesion assay of Example 5 was modified to measure the ability of the peptide compounds of the invention to compete with intact thrombospondin for adhesion to melanoma cells.
In this assay, intact thrombospondin is absorbed onto microtiter dishes as described in Example 5. The assay is similar to Example 5 except that before the melanoma cells are added to the microtiter dishes they are preincubated for 15 minutes with 100 μg/ml of various ligands.

fibronectin (FN) = test: Competitive platelet adhesion assay, absorbed fibronectin; format: cell-based; settings: 250 μg/ml; absorbed protein FN; platelets
Procedure: The direct adhesion assay of Example 7 was modified to measure the ability of the peptide compounds of the invention to compete with intact thrombospindin or fibronectin for adhesion of platelets.
In this assay, thrombospondin (TSP) or fibronectin (FN) was absorbed onto microtiter dish as described in Example 7. The assay was similar to Example 7 except that before platelets were added to the microtiter dishes they were preincubated with 250 μg/ml of various ligands.

[3] = tested on: Platelet-rich-plasma (PRP); test: Platelet aggregation assay (ADP, platelet-rich plasma); format: cell-based; settings: 1 μM ADP
Procedure: Platelet aggregation was monitored on a single-channel aggregometer equipped to measure luminescence (Chromo-Log, Havertown, Pa.). Platelet-rich-plasma (PRP) was obtained from whole blood anti-coagulated with 0.38% Sodium Citrate by centrifugation at 150 X g for 20 minutes. Peptides were added to 0.5 ml of PRP and aggregation initiated with 1 μM ADP. Buffer blanks contained diluent (water) but no peptide.

[4] = tested on: B16 F10 mouse melanoma cells; test: Antimetastatic activity in vivo (lung tumors); parameters: species or system C57 black mice; settings: for % buffer control (number of lung tumors): intravenous with cells, 16 days
Text: After 16 days, the mice were sacrificed and the number of lung tumors counted.

p27: Peptide p27 (SEQ ID NO. 19) tested in the collagenase assay; sequence not printed (WTSCSTSCG)
collagenase activity, inhibition (collagenase): -21%

fibronectin
Adherence as % Control (platelets): 83%

CC(C)[C@H](NC(=O)[C@H](CO)NC(=O)[C@H](CS)NC(=O)[C@@H]1CCCN1C(=O)[C@H](CO)NC(=O)[C@@H](N)Cc1c[nH]c2ccccc12)C(=O)N[C@H](C(=O)N[C@@H](CS)C(=O)NCC(=O)O)[C@@H](C)O [p1] (H-WSPCSVTCG-OH)
toxicity to embryo (abnormal development, embryo death) [1]: not toxic

Thrombospondin [reference compound]
Adhesion as % Thrombospondin [2]: 100%
Adherence as % Control (platelets): 100%

WSPCSVTCG-NH2 (cysteine pairing not given here) [p6]
Adhesion as % Thrombospondin [2]: 70%
adhesive properties (in words) ([2]; melanoma cell adhesion, Table 1): display adhesive properties
competition with thrombospondin for adhesion of melanoma cells (in words) (intact thrombospondin): compete to a lesser degree
% of buffer control (intact thrombospondin; 100 μg/ml): 89%
% of buffer control (intact thrombospondin; 200 μg/ml): 74%
% of buffer control (intact thrombospondin; 300 μg/ml): 74%
adherence to platelets (in words) (platelets): adhere to platelets
Adherence as % Control (platelets): 38%
% Buffer Control (fibronectin (FN)): 96%
inhibition of platelet aggregation (in words, FIG. 1) [3]: inhibit platelet aggregation
% buffer control (number of lung tumors) ([4]; 30 μg/mouse): 91%
% buffer control (number of lung tumors) ([4]; 100 μg/mouse): 102%
% buffer control (number of lung tumors) ([4]; 300 μg/mouse): 50%
number of lung tumors versus controls (in words) ([4]; mouse, in vivo): statistically fewer tumors than controls
size of lung tumors (in words) ([4]; mouse, in vivo): smaller in size

Bovine serum albumin [BSA, reference compound]
Adhesion as % Thrombospondin [2]: 13%
Adherence as % Control (platelets): 0.7%
